# Experimental data taken from patent publication US20250281453A1, “COMBINATION THERAPIES COMPRISING QTX125” (QUIMATRYX, S.L., priority 2022, published 2025).
# Assays:
# Assay in all cases: QTX125-containing combination therapy, hexosaminidase cell viability
# Format in all cases: cell-based
# [1] = tested on: HCT-116 colonic cancer cells; conditions: for combination index (C.I.): HCT-116; for EC50: Homo sapiens, HCT-116, HCT-116
# Protocol: (§1) To assess the oncolytic efficacy of QTX125-containing combination therapies in vitro, colonic, pancreatic, hepatic and ovarian tumour cells were administered sorafenib, gemcitabine or bortezomib at EC25, EC50 and EC75 doses. QTX125 was co-administered in order to produce a dose response curve.
# (§2) To prepare cells for viability assays, cells were transferred into 96 well tissue culture plates (Cultek), and resuspended in 100 µL at the following densities: 10,000 cells/well (Hep-G2 and MiaPaCa-2), 5000 cells/well (Panc-1 and SK-OV-3) or 3000 cells/well (HCT-116). Following 24 hours of incubation, media was removed and replaced with 100 µL media spiked with QTX125 and the test chemotherapeutic agents. Stock solutions for the agents used in this study are shown below in Table 1. Cells were incubated for a further 72 hours before cell viability was assessed using both ALAMAR® and hexosaminidase assays.
# (§3) For the hexosaminidase assay, media containing QTX125 and the test chemotherapeutic agents was removed, and cells were washed once with PBS. 60 μL of substrate solution (containing: 7.5 mM p-nitrophenol-N-acetyl-beta-D-glucosamide [Sigma N-9376], 0.1 M sodium citrate, pH 5.0 and 0.25% Triton X-100) was added to each well and cells were incubated at 37° C. for at least 1 hour. Incubating cells in this manner causes the substrate solution to become bright yellow, at which point 90 μL of developer solution (containing 50 mM Glycine pH 10.4 and 5 mM EDTA) was added to each well. Absorbance at 410 nm was recorded using a plate reader.
# (§4) Control values were normalised to 100% and percentage (%) viability was calculated. Data were used to plot log dose-response curves using a sigmoid dose-response (variable slope) equation. EC50 values were obtained using Equation 1, where ‘X’ is the logarithmic concentration; ‘Y’ is the response output and it is assumed that Y starts at bottom of the graph and reaches the top with an overall sigmoid shape.
# (§5) Cls were obtained using Equation 2, where (Dm) 1 is the ECx concentration of QTX125 and (D) 1 is the ECx concentration of QTX125 in the presence of sorafenib, gemcitabine or bortezomib.
# (§6) In order to assess the oncolytic efficacy of QTX125-containing combination therapies, monotherapy EC25, EC50 and EC75 doses for sorafenib, gemcitabine and bortezomib were calculated (as per Experiment 3) and administered to wells at these fixed concentrations. QTX125 was co-administered at a range of concentrations, in order to plot a dose-response curve such that the EC50 dose of QTX125 could be calculated in the presence of sorafenib/gemcitabine/bortezomib. QTX125 was administered to cells at a starting high-dose, and a 1:1 dilution was completed thereafter. In this part of the study, only the hexosaminidase assay was employed to assess cell viability following treatment with QTX125-containing combination therapies.
# (§7) It should be noted that it was not possible to determine the appropriate concentrations for gemcitabine in all cell lines tested. In cells resistant to gemcitabine, nominal concentrations were used in place of EC25, EC50 and EC75 doses (e.g., nominal doses of 1, 10 and 100 µM were used in Panc-1 and Hep-G2 cells).
# [2] = tested on: MiaPaCa-2 pancreatic cancer cells; conditions: for EC50: Homo sapiens, MIA PaCa-2, MiaPaCa-2; for combination index (C.I.): MiaPaCa-2
# Protocol: as §1, §2, §3, §4, §5, §6, §7
# [3] = tested on: Panc-1 pancreatic cancer cells; conditions: for EC50: Homo sapiens, PANC-1, Panc-1; for combination index (C.I): Panc-1
# Protocol: as §1, §2, §3, §4, §5, §6, §7
# [4] = tested on: SK-OV-3 ovarian cancer cells; conditions: for EC50: Homo sapiens, SK-OV-3, SK-Ov-3; for combination index (C.I): SK-Ov-3
# Protocol: as §1, §2, §3, §4, §5, §6, §7
# [5] = + bortezomib at EC25 dose (0.005 μM)
# [6] = + bortezomib at EC50 dose (0.007 μM)
# [7] = + bortezomib at EC75 dose (0.01 μM)
# [8] = + gemcitabine at EC25 dose (0.001 μM)
# [9] = + sorafenib at EC25 dose (2 μM)
# [10] = + sorafenib at EC50 dose (3.6 μM)
# [11] = + sorafenib at EC75 dose (6.5 μM)
# [12] = + bortezomib at EC25 dose (0.007 μM)
# [13] = + bortezomib at EC50 dose (0.009 μM)
# [14] = + bortezomib at EC75 dose (0.014 μM)
# [15] = + gemcitabine at EC25 dose (0.01 μM)
# [16] = + gemcitabine at EC50 dose (0.1 μM)
# [17] = + gemcitabine at EC75 dose (1 μM)
# [18] = + sorafenib at EC25 dose (4.2 μM)
# [19] = + sorafenib at EC50 dose (6.8 μM)
# [20] = + sorafenib at EC75 dose (10.3 μM)
# [21] = + bortezomib at EC75 dose (0.015 μM)
# [22] = + gemcitabine at EC25, nominal dose 1 μM
# [23] = + gemcitabine at EC50, nominal dose 10 μM
# [24] = + gemcitabine at EC75, nominal dose 100 μM
# [25] = + sorafenib at EC25 dose (4.1 μM)
# [26] = + sorafenib at EC50 dose (7.4 μM)
# [27] = + sorafenib at EC75 dose (15 μM)
# [28] = + bortezomib at EC25 dose (0.006 μM)
# [29] = + bortezomib at EC75 dose (0.012 μM)
# [30] = + gemcitabine at EC25 dose (0.1 μM)
# [31] = + gemcitabine at EC50 dose (0.25 μM)
# [32] = + gemcitabine at EC75 dose (0.5 μM)
# [33] = + sorafenib at EC25 dose (9.1 μM)
# [34] = + sorafenib at EC50 dose (12.7 μM)
# [35] = + sorafenib at EC75 dose (21.6 μM)
smiles,measurement,setting,value
"O=C(NO)c1ccc(CNC(=O)c2[nH]c(-c3ccc(O)cc3)cc2-c2ccoc2)cc1 [QTX125, 3-(3-Furyl)-N-{4-[(hydroxyamino)carbonyl]benzyl}-5-(4-hydroxyphenyl)-1 Hpyrrole-2-carboxamide]",combination index (C.I.),[1]; [5],1.0 arbitrary units
same,combination index (C.I.),[1]; [6],1.1 arbitrary units
same,combination index (C.I.),[1]; [7],0.9 arbitrary units
same,combination index (C.I.),[1]; [8],1.1 arbitrary units
same,combination index (C.I.),[1]; [9],0.9 arbitrary units
same,combination index (C.I.),[1]; [10],0.9 arbitrary units
same,combination index (C.I.),[1]; [11],0.9 arbitrary units
same,EC50,[1]; [5],2460 nM
same,EC50,[1]; [6],2540 nM
same,EC50,[1]; [7],2140 nM
same,EC50,[1]; [8],322 nM
same,EC50,[1]; [9],2350 nM
same,EC50,[1]; [10],2210 nM
same,EC50,[1]; [11],2260 nM
same,EC50,[1]; no second agent (control of Table 5.1.1),2590 nM
same,EC50,[1]; no second agent (control of Table 5.1.2),305 nM
same,EC50,[1]; no second agent (control of Table 5.1.3),2360 nM
same,EC50,[2]; [12],239 nM
same,EC50,[2]; [13],239 nM
same,EC50,[2]; [14],246 nM
same,EC50,[2]; [15],133 nM
same,EC50,[2]; [16],112 nM
same,EC50,[2]; [17],45.6 nM
same,EC50,[2]; [18],258 nM
same,EC50,[2]; [19],279 nM
same,EC50,[2]; [20],260 nM
same,EC50,[2]; no second agent (control of Table 5.2.1),214 nM
same,EC50,[2]; no second agent (control of Table 5.2.2),146 nM
same,EC50,[2]; no second agent (control of Table 5.2.3),230 nM
same,combination index (C.I.),[2]; [12],1.0 arbitrary units
same,combination index (C.I.),[2]; [13],1.0 arbitrary units
same,combination index (C.I.),[2]; [14],1.1 arbitrary units
same,combination index (C.I.),[2]; [15],0.9 arbitrary units
same,combination index (C.I.),[2]; [16],0.8 arbitrary units
same,combination index (C.I.),[2]; [17],0.3 arbitrary units
same,combination index (C.I.),[2]; [18],1.2 arbitrary units
same,combination index (C.I.),[2]; [19],1.3 arbitrary units
same,combination index (C.I.),[2]; [20],1.2 arbitrary units
same,EC50,[3]; [12],5030 nM
same,EC50,[3]; [13],5480 nM
same,EC50,[3]; [21],1460 nM
same,EC50,[3]; [22],4110 nM
same,EC50,[3]; [23],2470 nM
same,EC50,[3]; [24],1940 nM
same,EC50,[3]; [25],13700 nM
same,EC50,[3]; [26],14300 nM
same,EC50,[3]; [27],2980 nM
same,EC50,[3]; no second agent (control of Table 5.5.1),10200 nM
same,EC50,[3]; no second agent (control of Table 5.5.2),14700 nM
same,EC50,[3]; no second agent (control of Table 5.5.3),18200 nM
same,combination index (C.I),[3]; [12],0.3 arbitrary units
same,combination index (C.I),[3]; [13],0.3 arbitrary units
same,combination index (C.I),[3]; [21],0.1 arbitrary units
same,combination index (C.I),[3]; [22],0.3 arbitrary units
same,combination index (C.I),[3]; [23],0.2 arbitrary units
same,combination index (C.I),[3]; [24],0.1 arbitrary units
same,combination index (C.I),[3]; [25],1.3 arbitrary units
same,combination index (C.I),[3]; [26],1.4 arbitrary units
same,combination index (C.I),[3]; [27],0.3 arbitrary units
same,EC50,[4]; [28],532 nM
same,EC50,[4]; [6],580 nM
same,EC50,[4]; [29],262 nM
same,EC50,[4]; [30],171 nM
same,EC50,[4]; [31],303 nM
same,EC50,[4]; [32],139 nM
same,EC50,[4]; [33],389 nM
same,EC50,[4]; [34],657 nM
same,EC50,[4]; [35],406 nM
same,EC50,[4]; no second agent (control of Table 5.4.1),623 nM
same,EC50,[4]; no second agent (control of Table 5.4.2),282 nM
same,EC50,[4]; no second agent (control of Table 5.4.3),633 nM
same,combination index (C.I),[4]; [28],0.8 arbitrary units
same,combination index (C.I),[4]; [6],0.9 arbitrary units
same,combination index (C.I),[4]; [29],0.4 arbitrary units
same,combination index (C.I),[4]; [30],0.6 arbitrary units
same,combination index (C.I),[4]; [31],1.1 arbitrary units
same,combination index (C.I),[4]; [32],0.5 arbitrary units
same,combination index (C.I),[4]; [33],0.6 arbitrary units
same,combination index (C.I),[4]; [34],1.1 arbitrary units
same,combination index (C.I),[4]; [35],0.7 arbitrary units
